Measurements as given in US9682980B2, “Positive allosteric modulators of mGluR2” (BRISTOL-MYERS SQUIBB COMPANY, priority 2012, dated 2017).

What was measured:
human mGluR2 = human mGluR2 (Homo sapiens (Human), UniProt Q14416); assay: MGluR2 cAMP assay; format: cell-based; conditions: HEK293 cells clonally expressing human mGluR2, 1 μM forskolin, 1 μM LY-341495
Procedure, shortened: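 HEK293 cells expressing human mGluR2, glutamate-starved overnight, stimulated 30 min in HBSS pH 7.0 with 1 mM IBMX, 1 μM forskolin and 1 μM LY-341495. cAMP measured by HTRF (665/618 nm ratio) against a cAMP standard curve; EC50 from 4-parameter logistic fit of % inhibition.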

[1] = system: rats treated with phencyclidine (PCP); conditions: cited from earlier work
GAD patients = conditions: cited from earlier work
schizophrenia = conditions: cited from earlier work

human mGluR2, sequence (Q14416 19-872): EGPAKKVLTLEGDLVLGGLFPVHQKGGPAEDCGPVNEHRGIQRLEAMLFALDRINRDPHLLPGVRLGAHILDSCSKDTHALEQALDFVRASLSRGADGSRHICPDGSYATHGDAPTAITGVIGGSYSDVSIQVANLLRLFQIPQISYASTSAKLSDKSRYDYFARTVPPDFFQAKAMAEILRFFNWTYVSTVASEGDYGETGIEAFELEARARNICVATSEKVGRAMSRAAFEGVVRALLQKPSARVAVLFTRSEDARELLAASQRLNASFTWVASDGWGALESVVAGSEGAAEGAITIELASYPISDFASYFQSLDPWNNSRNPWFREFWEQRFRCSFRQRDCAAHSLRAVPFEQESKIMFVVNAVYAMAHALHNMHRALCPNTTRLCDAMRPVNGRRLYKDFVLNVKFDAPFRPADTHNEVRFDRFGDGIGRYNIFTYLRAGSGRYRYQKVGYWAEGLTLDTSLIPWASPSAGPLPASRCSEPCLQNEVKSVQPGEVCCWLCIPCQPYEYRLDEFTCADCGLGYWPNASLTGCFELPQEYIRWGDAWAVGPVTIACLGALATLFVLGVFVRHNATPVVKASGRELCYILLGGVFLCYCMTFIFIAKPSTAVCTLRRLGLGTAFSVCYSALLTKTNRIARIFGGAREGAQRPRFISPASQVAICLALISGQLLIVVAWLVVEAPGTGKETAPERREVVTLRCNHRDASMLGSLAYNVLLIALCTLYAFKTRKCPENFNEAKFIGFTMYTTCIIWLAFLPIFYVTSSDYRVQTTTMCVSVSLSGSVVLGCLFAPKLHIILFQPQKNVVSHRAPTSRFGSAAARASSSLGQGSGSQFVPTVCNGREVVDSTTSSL

EC50 (human mGluR2) [nM]	Structure (SMILES)	further results
4	N#Cc1ccccc1C1CCN(c2cnn3c(CC4CC4)nnc3c2C(F)(F)F)CC1 [Example 77, 2-(1-(3-(Cyclopropylmethyl)-8-(trifluoromethyl)-[1,2,4]triazolo[4,3-b]pyridazin-7-yl)piperidin-4-yl)benzonitrile]	–
7	N#Cc1ccccc1C1CCN(c2cnn3c(CC(F)(F)F)nnc3c2C(F)(F)F)CC1 [Example 78, 2-(1-(3-(2,2,2-Trifluoroethyl)-8-(trifluoromethyl)-[1,2,4]triazolo[4,3-b]pyridazin-7-yl)piperidin-4-yl)benzonitrile]	–
382	Clc1c(N2CCC(c3ccccn3)CC2)cnn2c(CC3CC3)nnc12 [Example 79, 8-Chloro-3-(cyclopropylmethyl)-7-(4-(pyridin-2-yl)piperidin-1-yl)-[1,2,4]triazolo[4,3-b]pyridazine]	–
0.2	COc1c(F)ccc(F)c1C1CCN(c2cnn3c(CC4CC4)nnc3c2C(F)(F)F)CC1 [Example 80, 3-(Cyclopropylmethyl)-7-(4-(3,6-difluoro-2-methoxyphenyl)piperidin-1-yl)-8-(trifluoromethyl)-[1,2,4]triazolo[4,3-b]pyridazine]	–
0.4	COc1c(F)ccc(F)c1C1CCN(c2cnn3c(CC(F)(F)F)nnc3c2C(F)(F)F)CC1 [Example 81, 7-(4-(3,6-Difluoro-2-methoxyphenyl)piperidin-1-yl)-3-(2,2,2-trifluoroethyl)-8-(trifluoromethyl)-[1,2,4]triazolo[4,3-b]pyridazine]	–
809	Clc1c(N2CCC(c3cccnc3)CC2)cnn2c(CC3CC3)nnc12 [Example 82, 8-Chloro-3-(cyclopropylmethyl)-7-(4-(pyridin-3-yl)piperidin-1-yl)-[1,2,4]triazolo[4,3-b]pyridazine]	–
42	COc1cccnc1C1CCN(c2cnn3c(CC(F)(F)F)nnc3c2Cl)CC1 [Example 83, 8-Chloro-7-(4-(3-methoxypyridin-2-yl)piperidin-1-yl)-3-(2,2,2-trifluoroethyl)-[1,2,4]triazolo[4,3-b]pyridazine]	–
4	Fc1ccccc1C1CCN(c2cnn3c(CC4CC4)nnc3c2C(F)(F)F)CC1 [Example 84, 3-(Cyclopropylmethyl)-7-(4-(2-fluorophenyl)piperidin-1-yl)-8-(trifluoromethyl)-[1,2,4]triazolo[4,3-b]pyridazine]	–
–	N[C@@]1(C(=O)O)CC[C@H]2[C@H](C(=O)O)[C@H]21 [LY-354740]	brain glutamate levels [1]: lowered brain glutamate levels; behavioral effects of PCP ([1]; hyper-locomotion and working memory deficits): reversed the behavioral effects of PCP
–	C[C@H](N)C(=O)N[C@@]1(C(=O)O)CC[C@H]2[C@H](C(=O)O)[C@H]21 [LY-544344]	therapeutic effects for anxiety (GAD patients): therapeutic effects
–	CSCC[C@H](N)C(=O)N[C@@]1(C(=O)O)CS(=O)(=O)[C@H]2[C@H](C(=O)O)[C@H]21 [LY-2140023]	positive and negative symptoms in schizophrenia (schizophrenia): relief of positive and negative symptoms
